Assay in all cases: isoTOP-ABPP mapping of AEA-DA-modified peptides in Neuro2a cells
Assay type in all cases: cell-based

Assay [1] has as its target T1, AEA-DA-modified peptides in Neuro2a cells (Mus musculus, UniProt Q99JY4).
T1 construct: endogenous in cells; host or cells: Neuro2a
Conditions: AEA-DA-modified peptide TRABD Q99JY4 234-253, SEQ ID NO 116; probe 100 μM, 12 replicates.

In assay [2] the target is T2, AEA-DA-modified peptides in Neuro2a cells (Mus musculus, UniProt P47867).
T2 construct: endogenous in cells; host or cells: Neuro2a
T2 sequence (P47867 23-471): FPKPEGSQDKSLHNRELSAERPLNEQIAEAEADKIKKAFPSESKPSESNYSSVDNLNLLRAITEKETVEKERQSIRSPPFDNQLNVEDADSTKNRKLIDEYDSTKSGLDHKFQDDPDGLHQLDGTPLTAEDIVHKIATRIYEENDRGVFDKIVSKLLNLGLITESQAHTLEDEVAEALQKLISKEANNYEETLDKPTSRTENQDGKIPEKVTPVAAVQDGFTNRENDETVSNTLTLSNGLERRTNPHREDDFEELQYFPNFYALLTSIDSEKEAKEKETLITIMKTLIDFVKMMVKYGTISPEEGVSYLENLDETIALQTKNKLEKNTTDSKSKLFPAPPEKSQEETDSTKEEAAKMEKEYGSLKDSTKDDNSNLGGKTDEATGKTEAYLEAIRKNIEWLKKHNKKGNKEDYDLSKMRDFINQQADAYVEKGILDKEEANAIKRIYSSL
The conditions noted are these: AEA-DA-modified peptide SCG3 P47867 178-203, SEQ ID NO 97; probe 100 μM, 12 replicates.

Assay [3] deals with T3, AEA-DA-modified peptides in Neuro2a cells (Mus musculus, UniProt Q61425).
T3 construct: endogenous in cells; host or cells: Neuro2a
T3 sequence (Q61425 13-314): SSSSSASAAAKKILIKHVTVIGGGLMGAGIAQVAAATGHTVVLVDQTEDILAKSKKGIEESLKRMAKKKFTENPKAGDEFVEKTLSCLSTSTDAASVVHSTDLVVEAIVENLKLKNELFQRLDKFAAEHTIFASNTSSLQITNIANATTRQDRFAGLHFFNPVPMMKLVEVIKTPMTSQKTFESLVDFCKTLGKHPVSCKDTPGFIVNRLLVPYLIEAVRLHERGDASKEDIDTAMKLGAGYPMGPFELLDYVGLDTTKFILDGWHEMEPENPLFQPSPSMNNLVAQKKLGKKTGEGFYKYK
Conditions: AEA-DA-modified peptide HADH Q61425 250-272, SEQ ID NO 47; probe 100 μM, 12 replicates.

Assay [4] has as its target T4, AEA-DA-modified peptides in Neuro2a cells (Mus musculus, UniProt Q8BGC4).
T4 construct: endogenous in cells; host or cells: Neuro2a
Conditions: AEA-DA-modified peptide ZADH2 Q8BGC4 86-115, SEQ ID NO 122; probe 100 μM, 12 replicates.

Assay [5] has as its target T5, AEA-DA-modified peptides in Neuro2a cells (Mus musculus, UniProt Q64310).
T5 construct: endogenous in cells; host or cells: Neuro2a
The conditions noted are these: probe 100 μM, 12 replicates.

Assay [6] deals with T6, AEA-DA-modified peptides in Neuro2a cells (Mus musculus, UniProt Q9CQ45).
T6 construct: endogenous in cells; host or cells: Neuro2a
T6 sequence (Q9CQ45 31-171): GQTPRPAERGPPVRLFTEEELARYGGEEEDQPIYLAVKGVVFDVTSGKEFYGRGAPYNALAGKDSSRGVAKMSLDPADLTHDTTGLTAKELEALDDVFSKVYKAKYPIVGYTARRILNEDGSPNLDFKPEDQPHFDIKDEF
The conditions noted are these: AEA-DA-modified peptide NENF Q9CQ45 84-94, SEQ ID NO 68; probe 100 μM, 12 replicates.

In assay [7] the target is T7, AEA-DA-modified peptides in Neuro2a cells (Mus musculus, UniProt Q6PIC6).
T7 construct: endogenous in cells; host or cells: Neuro2a
Conditions: AEA-DA-modified peptide ATP1A3 Q6PIC6 350-376, SEQ ID NO 18; probe 100 μM, 12 replicates.

Assay [8] concerns the target T8, AEA-DA-modified peptides in Neuro2a cells (Mus musculus, UniProt Q60864).
T8 construct: endogenous in cells; host or cells: Neuro2a
The conditions noted are these: AEA-DA-modified peptide STIP1 Q60864 506-514, SEQ ID NO 106; probe 100 μM, 12 replicates.

Assay [9] addresses T9, AEA-DA-modified peptides in Neuro2a cells (Mus musculus, UniProt O55022).
T9 construct: endogenous in cells; host or cells: Neuro2a
Conditions: probe 100 μM, 12 replicates.

The target of assay [10] is T10, AEA-DA-modified peptides in Neuro2a cells (Mus musculus, UniProt P09103).
T10 construct: endogenous in cells; host or cells: Neuro2a
T10 sequence (P09103 20-509): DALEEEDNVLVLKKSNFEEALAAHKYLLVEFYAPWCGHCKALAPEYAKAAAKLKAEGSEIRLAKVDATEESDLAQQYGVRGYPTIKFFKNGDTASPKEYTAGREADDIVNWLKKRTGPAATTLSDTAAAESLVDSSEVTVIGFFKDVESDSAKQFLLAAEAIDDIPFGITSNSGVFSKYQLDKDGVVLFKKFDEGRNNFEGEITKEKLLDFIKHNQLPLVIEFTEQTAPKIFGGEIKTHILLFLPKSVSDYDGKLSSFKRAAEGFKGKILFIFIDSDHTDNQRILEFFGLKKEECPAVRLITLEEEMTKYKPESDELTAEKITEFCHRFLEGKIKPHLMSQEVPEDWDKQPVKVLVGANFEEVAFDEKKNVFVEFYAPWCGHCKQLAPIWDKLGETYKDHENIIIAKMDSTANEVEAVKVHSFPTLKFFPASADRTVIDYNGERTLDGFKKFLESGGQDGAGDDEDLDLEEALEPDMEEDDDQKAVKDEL
Conditions: probe 100 μM, 12 replicates.

The target in assay [11] is T11, AEA-DA-modified peptides in Neuro2a cells (Mus musculus, UniProt P57776).
T11 construct: endogenous in cells; host or cells: Neuro2a
T11 sequence (P57776 whole entry): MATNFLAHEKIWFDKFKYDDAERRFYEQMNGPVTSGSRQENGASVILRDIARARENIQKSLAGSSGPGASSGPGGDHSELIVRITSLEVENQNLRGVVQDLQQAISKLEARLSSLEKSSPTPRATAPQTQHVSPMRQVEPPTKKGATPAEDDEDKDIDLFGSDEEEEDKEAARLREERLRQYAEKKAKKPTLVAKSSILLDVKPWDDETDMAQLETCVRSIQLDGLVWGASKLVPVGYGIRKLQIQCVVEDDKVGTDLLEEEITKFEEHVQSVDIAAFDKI
The conditions noted are these: AEA-DA-modified peptide EEF1D P57776 25-39, SEQ ID NO 35; probe 100 μM, 12 replicates.

T9 sequence (O55022 whole entry): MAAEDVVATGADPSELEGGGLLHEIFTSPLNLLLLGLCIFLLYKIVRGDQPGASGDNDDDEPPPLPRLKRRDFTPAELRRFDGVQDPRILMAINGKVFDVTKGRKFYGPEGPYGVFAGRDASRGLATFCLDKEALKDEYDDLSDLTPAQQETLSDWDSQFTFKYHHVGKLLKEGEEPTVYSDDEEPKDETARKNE
T5 sequence (Q64310 whole entry): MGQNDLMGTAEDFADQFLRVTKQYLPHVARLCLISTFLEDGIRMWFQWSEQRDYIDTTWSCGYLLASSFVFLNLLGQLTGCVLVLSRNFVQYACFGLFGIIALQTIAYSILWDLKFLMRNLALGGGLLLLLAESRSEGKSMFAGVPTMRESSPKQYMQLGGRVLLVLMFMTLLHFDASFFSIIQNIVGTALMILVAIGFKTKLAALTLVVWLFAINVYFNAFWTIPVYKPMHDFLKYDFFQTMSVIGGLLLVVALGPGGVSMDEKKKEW
T1 sequence (Q99JY4 whole entry): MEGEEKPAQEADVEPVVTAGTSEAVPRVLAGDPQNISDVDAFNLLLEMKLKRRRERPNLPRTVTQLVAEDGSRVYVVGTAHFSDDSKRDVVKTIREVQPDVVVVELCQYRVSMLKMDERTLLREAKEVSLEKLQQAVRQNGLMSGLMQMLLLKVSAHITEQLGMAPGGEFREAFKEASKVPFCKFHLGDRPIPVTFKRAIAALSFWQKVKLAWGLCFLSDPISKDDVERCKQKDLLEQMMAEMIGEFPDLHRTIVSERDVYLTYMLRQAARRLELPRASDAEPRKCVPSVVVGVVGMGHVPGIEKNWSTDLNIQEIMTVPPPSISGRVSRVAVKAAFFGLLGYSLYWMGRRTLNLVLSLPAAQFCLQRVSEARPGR
T4 sequence (Q8BGC4 whole entry): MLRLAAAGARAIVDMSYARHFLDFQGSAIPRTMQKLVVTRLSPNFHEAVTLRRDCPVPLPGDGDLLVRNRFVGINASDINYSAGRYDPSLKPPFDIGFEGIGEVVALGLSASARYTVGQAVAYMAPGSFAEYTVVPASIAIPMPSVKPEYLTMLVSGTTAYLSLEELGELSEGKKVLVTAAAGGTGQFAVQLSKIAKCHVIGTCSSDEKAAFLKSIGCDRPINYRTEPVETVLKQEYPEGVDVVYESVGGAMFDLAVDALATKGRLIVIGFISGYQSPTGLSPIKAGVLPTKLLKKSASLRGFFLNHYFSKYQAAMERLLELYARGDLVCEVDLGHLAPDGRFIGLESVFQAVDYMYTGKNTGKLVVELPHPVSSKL

For `C#CCCCC1(CC/C=C\C/C=C\C/C=C\CCCC(=O)NCCO)N=N1` [AEA-DA, (5Z,8Z,11Z)-N-(2-hydroxyethyl)-14-(3-(pent-4-yn-1-yl)-3H-diazirin-3-yl)tetradeca-5,8,11-trienamide], the Times observed in assay [1] is reported as 4; in [2], 4; in assay [3] it was 10; in [4] it was 8; in assay [5] (AEA-DA-modified peptide SURF4 Q64310 2-20, SEQ ID NO 108) it was 10; in assay [5] (AEA-DA-modified peptide SURF4 Q64310 31-44, SEQ ID NO 109), 3. The Times observed in [6] was 4; in assay [7], 2; in assay [8], 3; in [9] (AEA-DA-modified peptide PGRMC1 O55022 48-68, SEQ ID NO 82) it was 2; in [9] (AEA-DA-modified peptide PGRMC1 O55022 106-120, SEQ ID NO 81), 12; in assay [10] (AEA-DA-modified peptide P4HB P09103 135-165, SEQ ID NO 77), 3. The Times observed in assay [10] (AEA-DA-modified peptide P4HB P09103 233-250, SEQ ID NO 78) was 10; in assay [11], 10.

These data come from patent publication US10168342B2, “Lipid probes and uses thereof” (THE SCRIPPS RESEARCH INSTITUTE, priority 2015, dated 2019).
